Source: US20260125375A1 (Pfizer Inc., priority 2022, published 2026)
Where two headings read alike, the source gives them in different places.

Tests used:
WT CBL-B (36-427) = biological target: T1, WT CBL-B (36-427) (Homo sapiens, UniProt Q13191); test: Surface Plasmon Resonance (SPR) assay, binding affinity and kinetics, CBL-B; settings: SPR at 10° C., biotinylated WT CBL-B (36-427) on streptavidin chip; geometric mean; read-out: CBL-B SPR Kd (nM) GMean
T1 construct: N-terminal biotinylated WT CBL-B (36-427) and C-CBL (46-435) were captured on a streptavidin (SA) coated sensor chip
In short: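 SPR kinetics at 10° C, run either single-cycle (0.001–1 μM, 3-fold, 6 points, 120 s on, >5400 s off) or multi-cycle (10 points, 2-fold, top 10 or 100 μM, 90 s on). Proteins were N-biotinylated CBL-B (36-427) and C-CBL (46-435) on SA surfaces, in pH 7.2 HEPES, 2% DMSO.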

CBL-B = biological target: T2, CBL-B (Homo sapiens, UniProt Q13191); test: Jurkat HiBit-IL2 assay (c-CBL KO), reporter cell line expressing CBL-B only; type: cell-based; settings: geometric mean, read-out: C-CBL KO EC50 (nM) GMean
T2 construct: endogenous in cells; host or cells: Jurkat HiBit-IL2 reporter cells, C-CBL knocked out by CRISPR
In short: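 IL-2 secretion was measured by HiBiT luminescence after 1 h compound exposure (0.1% DMSO) and 4 h TCR/CD28 stimulation (final anti-CD3 1 μg/ml, anti-CD28 2 μg/ml, 37 °C) of Jurkat reporters lacking c-CBL or CBL-B. EC50 came from fold-of-effect versus stimulated-only cells, as geometric means across tests.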

CBL-B (residues 36-427) = biological target: T3, CBL-B (residues 36-427) (Homo sapiens, UniProt Q13191); test: Ligand Displacement Assay (LDA), HTRF competitive binding against BODIPY-labeled fluorescent tracer, CBL-B; settings: geometric mean of the number of tests, read-out: CBL-B Ki (nM) GMean
T3 construct: Purified CBL-B (residues 36-427) and C-CBL (residues 46-435) proteins from baculovirus-infected insect cells; made in house; host or cells: baculovirus-infected insect cells
In short: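 Terbium-streptavidin donor on BirA-biotinylated, AviTagged protein from baculovirus-infected insect cells; BODIPY tracer as acceptor. Compound titrations were three-fold and duplicated, […] with 2% DMSO final.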

[1] = c-CBL KO (CBL-B only), anti-CD3/anti-CD28 stimulation 4 hours, Table 16a
[2] = C-CBL KO (expressing CBL-B only), Table 16b (further repetition)

SMILES	Kd (WT CBL-B (36-427))	EC50 (CBL-B; [1])	Ki (CBL-B (residues 36-427))	EC50 (CBL-B; [2])
C[C@H](N[C@H]1CCOC1)c1nc(C(F)(F)F)cc2c(-c3cccc([C@H](c4nncn4C)C4CCC4)c3)n[nH]c12 (single isomer, unassigned) [Example C2]	2.5 nM	54 nM	3.9 nM	–
C[C@@H](N[C@H]1CCOC1)c1nc(C(F)(F)F)cc2c(-c3cccc([C@H](c4nncn4C)C4CCC4)c3)n[nH]c12 (single isomer, unassigned) [Example C3]	5.6 nM	> 159 nM	7.8 nM	–
C[C@H](NC1CCCC1)c1nc(C(F)(F)F)cc2c(-c3cccc([C@H](c4nncn4C)C4CCC4)c3)n[nH]c12 (single isomer, unassigned) [Example C10]	11.5 nM	233 nM	11.4 nM	–
C[C@@H](NC1CCCC1)c1nc(C(F)(F)F)cc2c(-c3cccc([C@H](c4nncn4C)C4CCC4)c3)n[nH]c12 (single isomer, unassigned) [Example C11]	0.9 nM	5 nM	0.6 nM	6 nM
C[C@H](N[C@H]1CCC(F)(F)C1)c1nc(C(F)(F)F)cc2c(-c3cccc(C4(Cc5nncn5C)COC4)c3)n[nH]c12 (single isomer, unassigned) [Example C12]	0.8 nM	4 nM	0.9 nM	8 nM
C[C@@H](N[C@H]1CCC(F)(F)C1)c1nc(C(F)(F)F)cc2c(-c3cccc(C4(Cc5nncn5C)COC4)c3)n[nH]c12 (single isomer, unassigned) [Example C13]	2.8 nM	16 nM	2.3 nM	–
C[C@@H](NC1CCCC1)c1nc(C(F)(F)F)cc2c(-c3cccc(C4(Cc5nncn5C)COC4)c3)n[nH]c12 (single isomer, unassigned) [Example C15]	5.6 nM	43 nM	8.9 nM	–
C[C@H](N[C@@H]1CCC(F)(F)C1)c1nc(C(F)(F)F)cc2c(-c3cccc(C4(Cc5nncn5C)COC4)c3)n[nH]c12 (single isomer, unassigned) [Example C17]	1.8 nM	33 nM	4 nM	–
C[C@@H](N[C@@H]1CCC(F)(F)C1)c1nc(C(F)(F)F)cc2c(-c3cccc(C4(Cc5nncn5C)COC4)c3)n[nH]c12 (single isomer, unassigned) [Example C18]	0.7 nM	17 nM	2.2 nM	19 nM
CC(c1nc(C(F)(F)F)cc2c(-c3cccc(C4(Cc5nncn5C)COC4)c3)n[nH]c12)N1CCC[C@H](C)C1 (single isomer, unassigned) [Example C19]	2.4 nM	56 nM	10.8 nM	–
CC(c1nc(C(F)(F)F)cc2c(-c3cccc(C4(Cc5nncn5C)COC4)c3)n[nH]c12)N1CCC[C@H](C)C1 (single isomer, unassigned) [Example C20]	1.2 nM	12 nM	2.4 nM	15 nM
CC(c1nc(C(F)(F)F)cc2c(-c3cccc(C4(Cc5nncn5C)COC4)c3)n[nH]c12)N1CCCCC1 (single isomer, unassigned) [Example C21, 3-(3-{3-[(4-methyl-4H-1,2,4-triazol-3-yl)methyl]oxetan-3-yl}phenyl)-7-[(1ξ)-1-(piperidin-1-yl)ethyl]-5-(trifluoromethyl)-1H-pyrazolo[3,4-c]pyridine]	13.7 nM	152 nM	21.3 nM	–
CC(c1nc(C(F)(F)F)cc2c(-c3cccc(C4(Cc5nncn5C)COC4)c3)n[nH]c12)N1CCCCC1 (single isomer, unassigned) [Example C22, 3-(3-{3-[(4-methyl-4H-1,2,4-triazol-3-yl)methyl]oxetan-3-yl}phenyl)-7-[(1ξ)-1-(piperidin-1-yl)ethyl]-5-(trifluoromethyl)-1H-pyrazolo[3,4-c]pyridine]	8.2 nM	120 nM	24.1 nM	–
CC(c1nc(C(F)(F)F)cc2c(-c3cccc(C4(Cc5nncn5C)COC4)c3)n[nH]c12)N1CCOCC1 (single isomer, unassigned) [Example C23, 3-(3-{3-[(4-methyl-4H-1,2,4-triazol-3-yl)methyl]oxetan-3-yl}phenyl)-7-[(1ξ)-1-(morpholin-4-yl)ethyl]-5-(trifluoromethyl)-1H-pyrazolo[3,4-c]pyridine]	5.1 nM	152 nM	5.7 nM	–
CC(c1nc(C(F)(F)F)cc2c(-c3cccc(C4(Cc5nncn5C)COC4)c3)n[nH]c12)N1CCOCC1 (single isomer, unassigned) [Example C24, 3-(3-{3-[(4-methyl-4H-1,2,4-triazol-3-yl)methyl]oxetan-3-yl}phenyl)-7-[(1ξ)-1-(morpholin-4-yl)ethyl]-5-(trifluoromethyl)-1H-pyrazolo[3,4-c]pyridine]	16.9 nM	434 nM	28.3 nM	–
CC(c1nc(C(F)(F)F)cc2c(-c3cccc(C4(Cc5nncn5C)COC4)c3)n[nH]c12)N1C[C@@H](F)[C@H](F)C1 (single isomer, unassigned) [Example C25]	1.8 nM	49 nM	6.5 nM	–
C[C@H](c1nc(C(F)(F)F)cc2c(-c3cccc(C4(Cc5nncn5C)COC4)c3)n[nH]c12)N1C[C@@H](F)[C@H](F)C1 (single isomer, unassigned) [Example C26]	13.2 nM	172 nM	40.5 nM	–
CC(NC1CNC1)c1nc(C(F)(F)F)cc2c(-c3cccc(C4(Cc5nncn5C)COC4)c3)n[nH]c12 (single isomer, unassigned) [Example C27, N-{(1ξ)-1-[3-(3-{3-[(4-methyl-4H-1,2,4-triazol-3-yl)methyl]oxetan-3-yl}phenyl)-5-(trifluoromethyl)-1H-pyrazolo[3,4-c]pyridin-7-yl]ethyl}azetidin-3-amine]	8.7 nM	> 1290 nM	31.4 nM	–
CC(NC1CNC1)c1nc(C(F)(F)F)cc2c(-c3cccc(C4(Cc5nncn5C)COC4)c3)n[nH]c12 (single isomer, unassigned) [Example C28, N-{(1ξ)-1-[3-(3-{3-[(4-methyl-4H-1,2,4-triazol-3-yl)methyl]oxetan-3-yl}phenyl)-5-(trifluoromethyl)-1H-pyrazolo[3,4-c]pyridin-7-yl]ethyl}azetidin-3-amine]	17.3 nM	> 2070 nM	33.4 nM	–
CC1CN(Cc2nc(C(F)(F)F)cc3c(-c4cccc(C5(Cc6nncn6C)COC5)c4)n[nH]c23)CCC1(F)F (single isomer, unassigned) [Example C31, 7-{[(3ξ)-4,4-difluoro-3-methylpiperidin-1-yl]methyl}-3-(3-{3-[(4-methyl-4H-1,2,4-triazol-3-yl)methyl]oxetan-3-yl}phenyl)-5-(trifluoromethyl)-1H-pyrazolo[3,4-c]pyridine]	4.7 nM	166 nM	21.7 nM	–
CC1CN(Cc2nc(C(F)(F)F)cc3c(-c4cccc(C5(Cc6nncn6C)COC5)c4)n[nH]c23)CCC1(F)F (single isomer, unassigned) [Example C32, 7-{[(3ξ)-4,4-difluoro-3-methylpiperidin-1-yl]methyl}-3-(3-{3-[(4-methyl-4H-1,2,4-triazol-3-yl)methyl]oxetan-3-yl}phenyl)-5-(trifluoromethyl)-1H-pyrazolo[3,4-c]pyridine]	0.8 nM	83 nM	6.7 nM	49 nM
CC(C)NC(C)c1nc(C(F)(F)F)cc2c(-c3cccc([C@H](c4nncn4C)C4CCC4)c3)n[nH]c12 (single isomer, unassigned) [Example C34]	5.2 nM	67 nM	8.9 nM	86 nM
CC(C)NC(C)c1nc(C(F)(F)F)cc2c(-c3cccc([C@H](c4nncn4C)C4CCC4)c3)n[nH]c12 (single isomer, unassigned) [Example C35]	2.8 nM	15 nM	3.1 nM	–
C[C@H](N[C@H]1C[C@@H](O)C1)c1nc(C(F)(F)F)cc2c(-c3cccc([C@H](c4nncn4C)C4CCC4)c3)n[nH]c12 (single isomer, unassigned) [Example C36]	2 nM	20 nM	1.8 nM	35 nM
C[C@@H](N[C@H]1C[C@@H](O)C1)c1nc(C(F)(F)F)cc2c(-c3cccc([C@H](c4nncn4C)C4CCC4)c3)n[nH]c12 (single isomer, unassigned) [Example C37]	3.3 nM	173 nM	5.3 nM	–
C[C@H](N[C@H]1CCC[C@@H]1O)c1nc(C(F)(F)F)cc2c(-c3cccc([C@H](c4nncn4C)C4CCC4)c3)n[nH]c12 (single isomer, unassigned) [Example C47]	1.6 nM	5 nM	0.7 nM	11 nM
